Data from patent US8609602B2, “Cleaning solution” (priority 2010, dated 2013).
Read-outs that look alike come from different tables or passages of the source.

Experiments:
[1] = assay type: physicochemical; conditions: for Solubility of added stearic acid in detergent solution (in words): stearic acid 10-20 mg/ml, overnight at 40° C.
Protocol: Detergents classified as ionic and non-ionic were tested, as well as carbohydrate and polyethylene glycol based non-ionic detergents.

[2] = MSDS / known values; cited from earlier work
[3] = 6.7% TRIZMA in 67% aqueous 2-propanol; (10% w/v)
Protocol: Different detergent or detergent/base stock solutions were mixed in culture tubes, vortexed for 1 minute, and allowed to completely dissolve over an additional 30 minutes. The stock solutions were either used undiluted or diluted with additional water or alcohol in predetermined ratios. Diluted solutions were again mixed by vortexing for 1 minute and then allowing the solution to sit for 30 minutes.
A representative aliphatic acid, the fatty acid stearic acid, was added to the tube in a predetermined quantity between 10 mg/ml and 20 mg/ml. […] Solutions were then cooled to room temperature (RT) and after 6 hours, they were evaluated again for evidence of precipitation.
The following experiment is similar to Experiment 1, except that addition of a non-toxic buffer and/or a short-chained alcohol was investigated to attempt to improve upon the above results. Various bases and alcohols were tested. […] A representative non-toxic base, TRIZMA® (SIGMA-ALDRICH®, St. Louis, Mo.), was first tested (also known as TRIS, and Tris(hydroxymethyl)aminomethane). […] For this test, the amount of contaminating aliphatic acid, stearic acid, added to the solution was increased to 100 mg/ml.

CCCCCCCCCCCC[N+](C)(C)[O-] [C-12 dimethyl amine oxide, n-dodecyl-N,N-dimethylamine-N-oxide]
Parts surfactant needed to dissolve stearic acid ([1]; aqueous detergent solution): 4 parts surfactant could dissolve 1 part stearic acid
Solubility of added stearic acid in detergent solution (in words) [1]: Complete solubility at all concentrations of added stearic acid
Solubility of added stearic acid in detergent solution (in words) ([1]; listed as n-dodecyl-N,N-dimethylamine-N-oxide): quantitatively facilitated the solubilization
LD50 [2]: 5000 mg/kg

Tris(hydroxymethyl)aminomethane [TRIZMA base]
Stearic acid completely solubilized by TRIZMA base without detergent [3]: 100 mg/mL
